Experimental findings from patent US11474105B2, “Methods and compositions for SIRT1 expression as a marker for endometriosis and subfertility” (The University of North Carolina at Chapel Hill, priority 2016, dated 2022) are described below.

The test has as its system BCL6 positive individuals. Put plainly: IVF ovum transfer or frozen embryo transfer after pretreatment. The class given is in vivo. The note with it: pretreatment for two months prior to transfer, compared to no treatment, p<0.0001. As to the method: In vitro fertilized (IVF) ovum transfer or frozen embryo transfer was carried out in BCL6 positive individuals. There were three treatment groups: no treatment prior to transfer, laparoscopy with treatment of endometriosis prior to transfer and GnRH agonist suppression (Lupron) pretreatment for two months prior to transfer.

Consider `CCNC(=O)[C@@H]1CCCN1C(=O)[C@H](CCCNC(=N)N)NC(=O)[C@H](CC(C)C)NC(=O)[C@@H](CC(C)C)NC(=O)[C@H](Cc1ccc(O)cc1)NC(=O)[C@H](CO)NC(=O)[C@H](Cc1c[nH]c2ccccc12)NC(=O)[C@H](Cc1c[nH]cn1)NC(=O)[C@@H]1CCC(=O)N1` [Lupron, leuprolide acetate], for which the time to pregnancy result is “significantly better” and the transplantation rate result is “significantly better”.
